Measurements taken from patent EP1247803A2, “Indolinone compounds suitable for modulation of protein kinases” (Sugen, Inc., priority 1996, dated 1998).

Molecular target: T1, FLK-1 receptor (Mus musculus, UniProt P35918)
T1 construct: expressed in transfected cells; host or cells: NIH3T3 C7#3
Experiment: FLK-1 ELISA (kinase activity of the FLK-1 receptor in FLK-1/NIH3T3 cells, VEGF stimulated)
Type: cell-based
Set-up: concentration or dose not given beside the values
Description: An enzyme linked immunosorbent assay (ELISA) was conducted to measure the catalytic activity of the FLK-1 receptor and more specifically, the inhibition or activation of indolinone compounds on the catalytic activity of the FLK-1 receptor. Specifically, the following assay was conducted to measure catalytic activity of the FLK-1 receptor in FLK-1/NIH3T3 cells.
The materials and protocol for the FLK-1 ELISA assay are as described in International Patent Publication No. WO 96/40116, published December 19, 1996 by Tang et al.
Selected compounds were tested in the FLK-1 ELISA assay.
An ELISA assay was conducted to measure the kinase activity of the FLK-1 receptor and more specifically, the inhibition or activation of protein tyrosine kinase activity on the FLK-1 receptor. Specifically, the following assay was conducted to measure kinase activity of the FLK-1 receptor in FLK-1/NIH3T3 cells.
Materials. The following reagents and supplies were used: • a. […] Cappel goat anti-rabbit IgG (catalog no. 55641); • c. PBS (Gibco Catalog No. 450-1300EB); • d. TBSW Buffer (50 mM Tris (pH 7.2), 150 mM NaCl and 0.1% Tween-20); • e. Ethanolamine stock (10% ethanolamine (pH 7.0), stored at 4°C); • f. HNTG buffer (20mM HEPES buffer (pH 7.5), 150mM NaCl, 0.2% Triton X-100, and 10% glycerol); • g. EDTA (0.5 M (pH 7.0) as a 100X stock); • h. Sodium ortho vanadate (0.5 M as a 100X stock); • i. Sodium pyro phosphate (0.2M as a 100X stock); • j. NUNC 96 well V bottom polypropylene plates (Applied Scientific Catalog No. AS-72092); • k. NIH3T3 C7#3 Cells (FLK-1 expressing cells); • l. DMEM with 1X high glucose L Glutamine (catalog No. 11965-050); • m. FBS, Gibco (catalog no. 16000-028); • n. L-glutamine, Gibco (catalog no. 25030-016); • o. VEGF, PeproTech, Inc. (catalog no. 100-20)(kept as 1 µg/100 µl stock in Milli-Q dH2O and stored at -20°C; • p. Affinity purified anti-FLK-1 antiserum which can be obtained or purified as follows: • 1. Prepare a Tresyl-Activated Agarose/Flk-1-D column by incubating 10 ml of Tresyl-Activated Agarose with 20 mg of purified GST-Flk-1-D fusion protein in 100mM sodium bicarbonate (pH 9.6) buffer overnight at 4 °C. • 2. Wash the column once with PBS. • 3. Block the excess sites on the column with 2 M glycine for 2 hours at 4°C. • 4. Wash the column with PBS. • 5. Incubate the column with Rabbit anti-Flk-1D production bleed for 2 hours at 4 °C. • 6. Wash the column with PBS. • 7. Elute antiserum with 100 mM Citric Acid, pH3.0 and neutralize the eluate immediately with 2 M Tris, pH 9.0. • 8. Dialyize the eluate against PBS overnight at 4 °C with 3 changes of buffer (sample to buffer ratio is 1:100). • 9. Adjust the dialyized antiserum to 5% glycerol and store at -80 °C in small aliquotes. • q.
Protocol. The following protocol was used for conducting the assay: • 1. Coat Corning 96-well elisa plates with 1.0µg per well Cappel Anti-rabbit IgG antibody in 0.1M Na2CO3 pH 9.6. Bring final volume to 150 µl per well. Coat plates overnight at 4°C. Plates can be kept up to two weeks when stored at 4°C. • 2. Grow cells in Growth media(DMEM, supplemental with 2.0mM L-Glutamine, 10% FBS) in suitable culture dishes until confluent at 37°C, 5% CO2. • 3. Harvest cells by trypsinization and seed in Corning 25850 polystyrene 96-well roundbottom cell plates, 25.000 cells/well in 200µl of growth media. • 4. Grow cells at least one day at 37°C, 5% CO2. • 5. Wash cells with D-PBS 1X. • 6. Add 200µl/well of starvation media (DMEM, 2.0mM 1-Glutamine, 0.1% FBS). Incubate overnight at 37°C, 5% CO2. • 7. Dilute Compounds/Extracts 1:20 in polypropylene 96 well plates using starvation media. Dilute dimethylsulfoxide 1:20 for use in control wells. • 8. Remove starvation media from 96 well cell culture plates and add 162 µl of fresh starvation media to each well. • 9. Add 18µl of 1:20 diluted Compound/Extract dilution (from step 7) to each well plus the 1:20 dimethylsulfoxide dilution to the control wells (+/- VEGF), for a final dilution of 1:200 after cell stimulation. […]

T1 sequence (P35918 20-1345): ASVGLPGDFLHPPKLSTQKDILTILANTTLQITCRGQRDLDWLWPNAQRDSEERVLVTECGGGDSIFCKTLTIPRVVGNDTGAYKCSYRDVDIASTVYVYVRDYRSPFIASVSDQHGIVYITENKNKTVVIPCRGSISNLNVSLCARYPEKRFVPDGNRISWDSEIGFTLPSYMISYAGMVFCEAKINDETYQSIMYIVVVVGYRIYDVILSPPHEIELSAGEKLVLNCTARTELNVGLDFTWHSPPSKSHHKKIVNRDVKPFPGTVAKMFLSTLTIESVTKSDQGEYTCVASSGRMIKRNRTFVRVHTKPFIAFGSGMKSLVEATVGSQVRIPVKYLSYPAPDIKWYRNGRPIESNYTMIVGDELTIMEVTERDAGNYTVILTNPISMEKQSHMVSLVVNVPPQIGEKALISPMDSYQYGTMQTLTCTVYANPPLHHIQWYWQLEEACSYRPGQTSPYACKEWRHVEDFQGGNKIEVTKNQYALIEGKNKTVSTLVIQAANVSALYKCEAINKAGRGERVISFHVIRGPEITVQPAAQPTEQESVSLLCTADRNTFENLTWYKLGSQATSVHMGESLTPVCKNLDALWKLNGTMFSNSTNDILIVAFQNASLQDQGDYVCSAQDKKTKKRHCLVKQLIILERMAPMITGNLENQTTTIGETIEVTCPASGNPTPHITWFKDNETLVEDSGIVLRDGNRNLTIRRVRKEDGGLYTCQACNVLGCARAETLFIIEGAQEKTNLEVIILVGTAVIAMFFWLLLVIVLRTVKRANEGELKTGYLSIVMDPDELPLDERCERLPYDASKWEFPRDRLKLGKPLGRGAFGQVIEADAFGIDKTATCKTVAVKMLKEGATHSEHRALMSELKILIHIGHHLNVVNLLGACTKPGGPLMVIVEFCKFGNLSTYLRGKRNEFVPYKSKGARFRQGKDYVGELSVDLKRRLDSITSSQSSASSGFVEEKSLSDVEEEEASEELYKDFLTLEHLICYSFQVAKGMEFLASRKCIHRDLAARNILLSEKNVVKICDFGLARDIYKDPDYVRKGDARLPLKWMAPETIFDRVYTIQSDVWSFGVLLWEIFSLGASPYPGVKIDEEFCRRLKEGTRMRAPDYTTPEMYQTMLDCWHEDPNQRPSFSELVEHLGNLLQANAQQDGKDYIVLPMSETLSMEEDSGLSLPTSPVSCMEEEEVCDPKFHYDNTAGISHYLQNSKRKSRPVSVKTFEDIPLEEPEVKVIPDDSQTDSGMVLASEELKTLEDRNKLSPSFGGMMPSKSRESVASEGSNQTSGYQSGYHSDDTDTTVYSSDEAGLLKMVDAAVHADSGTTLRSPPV

Row | SMILES | Fik Kinase %Inhibition [%]
1 | COc1c(I)cc(C=C2C(=O)Nc3ccc(I)cc32)cc1C(C)(C)C [10732/B11] | 9.0
2 | C=C(C)C1CC=C(C=C2C(=O)Nc3ccc(S(=O)(=O)NC)cc32)CC1 (stereo not drawn) [10731/D04] | 9.3
3 | CC(C)c1cc(C=C2C(=O)Nc3c(Br)cc(Br)cc32)cc(C(C)C)c1Oc1ccccc1 [10732/A04] | -14.1
4 | O=C1Nc2ccc(I)cc2C1=CC(c1cccs1)C(F)(F)F (stereo not drawn) [10732/B02] | 2.9
5 | Cc1cc2occ(C=C3C(=O)Nc4ccc(S(=O)(=O)Nc5ccc(C(F)(F)F)cc5)cc43)c(=O)c2cc1C [10731/E03] | -1.4
6 | COc1c(Br)cc(C=C2C(=O)Nc3c(Br)cc(Br)cc32)cc1C(C)(C)C [10732/A07] | -19.8
7 | COc1c(Br)cc(C=C2C(=O)Nc3ccc(Br)c(C)c32)cc1C(C)(C)C [10732/C07] | 15.4
8 | C=C(C)C1CC=C(C=C2C(=O)Nc3ccc(S(=O)(=O)N4CCOCC4)cc32)CC1 (stereo not drawn) [10731/F04] | 24.5
9 | CNS(=O)(=O)c1ccc2c(c1)C(=Cc1coc3ccc(C(C)C)cc3c1=O)C(=O)N2 [10731/D05] | 32.7
10 | CN1C(=O)C(=C2C(=O)Nc3ccc(S(=O)(=O)N4CCOCC4)cc32)c2ccccc21 [10731/F10] | 11.0
11 | CN1C(=O)C(=C2C(=O)Nc3ccc(S(=O)(=O)Nc4ccc(C(F)(F)F)cc4)cc32)c2ccccc21 [10731/E10] | 33.1
12 | CNS(=O)(=O)c1ccc2c(c1)C(=Cc1coc3ccc([N+](=O)[O-])cc3c1=O)C(=O)N2 [10731/D07] | 12.3
13 | CCOC(=O)c1cc(C=C2C(=O)Nc3ccc(S(=O)(=O)NC)cc32)oc1C [10718/D06] | 15.8
14 | O=C1Nc2ccc(S(=O)(=O)Nc3ccc(C(F)(F)F)cc3)cc2C1=Cc1c[nH]c(=O)[nH]c1=O [10731/E08] | 10.5
15 | CNS(=O)(=O)c1ccc2c(c1)C(=Cc1cc(Br)c(OCc3ccccc3)c(C(C)(C)C)c1)C(=O)N2 [10732/D08] | 33.3
16 | Cc1c(Br)ccc2c1C(=Cc1cc(Cl)c(OCc3ccccc3)c(C(C)(C)C)c1)C(=O)N2 [10732/C10] | 15.1
17 | CNS(=O)(=O)c1ccc2c(c1)C(=Cc1ccc(OC)c(C(C)(C)C)c1)C(=O)N2 [10732/D05] | 15.7
18 | CCn1c2ccccc2c2cc(C=C3C(=O)Nc4ccc(CCCl)cc43)ccc21 [10731/G02] | 16.8
19 | Cc1c(Br)ccc2c1C(=CC(c1cccs1)C(F)(F)F)C(=O)N2 (stereo not drawn) [10732/C02] | 11.9
20 | Cc1c(Br)ccc2c1C(=Cc1cc(Br)c(OCc3ccccc3)c(C(C)(C)C)c1)C(=O)N2 [10732/C08] | 7.6
21 | CC(C)c1ccc2occ(C=C3C(=O)Nc4ccc(S(=O)(=O)N5CCOCC5)cc43)c(=O)c2c1 [10731/F05] | 17.6
22 | O=C1Nc2ccc(S(=O)(=O)N3CCOCC3)cc2C1=Cc1coc2ccc([N+](=O)[O-])cc2c1=O [10731/F07] | 13.3
23 | CC(C)(C)c1cc(C=C2C(=O)Nc3c(Br)cc(Br)cc32)cc(Cl)c1OCc1ccccc1 [10732/A10] | 10.2
24 | C=C(C)C1CC=C(C=C2C(=O)Nc3ccc(CCCl)cc32)CC1 (stereo not drawn) [10731/G04] | 14.5
25 | C=C(C)C1CC=C(C=C2C(=O)Nc3ccc(S(=O)(=O)Nc4ccc(C(F)(F)F)cc4)cc32)CC1 (stereo not drawn) [10731/E04] | 23.8
26 | COc1c(C(C)C)cc(C=C2C(=O)Nc3ccc(I)cc32)cc1C(C)C [10732/B03] | 8.2

Row | SMILES | Fik Kinase %Inhibition [%]
27 | COc1c(Cl)cc(C=C2C(=O)Nc3ccc(I)cc32)cc1C(C)(C)C [10732/B09] | 14.0
28 | CNS(=O)(=O)c1ccc2c(c1)C(=Cc1cc(C(C)C)c(Oc3ccccc3)c(C(C)C)c1)C(=O)N2 [10732/D04] | 24.6
29 | CC(C)c1ccc2occ(C=C3C(=O)Nc4ccc(S(=O)(=O)Nc5ccc(C(F)(F)F)cc5)cc43)c(=O)c2c1 [10731/E05] | 7.0
30 | O=C1Nc2ccc(S(=O)(=O)Nc3ccc(C(F)(F)F)cc3)cc2C1=Cc1coc2ccc([N+](=O)[O-])cc2c1=O [10731/E07] | 12.6
31 | Cc1cc2occ(C=C3C(=O)Nc4ccc(S(=O)(=O)N5CCOCC5)cc43)c(=O)c2cc1C [10731/F03] | 7.9
32 | CNS(=O)(=O)c1ccc2c(c1)C(=Cc1ccc3ccccc3c1O)C(=O)N2 [10718/D04] | 6.4
33 | CC(C)(C)c1cc(C=C2C(=O)Nc3c(Br)cc(Br)cc32)ccc1OCc1ccccc1 [10732/A06] | -0.0
34 | CNS(=O)(=O)c1ccc2c(c1)C(=Cc1cc(Cl)c(OCc3ccccc3)c(C(C)(C)C)c1)C(=O)N2 [10732/D10] | 25.5
35 | COc1c(Cl)cc(C=C2C(=O)Nc3c(Br)cc(Br)cc32)cc1C(C)(C)C [10732/A09] | -11.2
36 | CC(C)(C)c1cc(C=C2C(=O)Nc3ccc(I)cc32)ccc1OCc1ccccc1 [10732/B06] | 8.1
37 | Cc1c(Br)ccc2c1C(=Cc1ccc([N+](=O)[O-])o1)C(=O)N2 [10718/C11] | 11.4
38 | COc1ccc2[nH]cc(C=C3C(=O)Nc4ccc(S(=O)(=O)Nc5ccc(C(F)(F)F)cc5)cc43)c2c1 [10731/E09] | 52.5
39 | Cc1ccc2occ(C=C3C(=O)Nc4ccc(S(=O)(=O)Nc5ccc(C(F)(F)F)cc5)cc43)c(=O)c2c1 [10731/E06] | 2.6
40 | CC(C)(C)c1cc(C=C2C(=O)Nc3ccc(I)cc32)cc(Br)c1OCc1ccccc1 [10732/B08] | 8.0
41 | CNS(=O)(=O)c1ccc2c(c1)C(=Cc1cc(Cl)c(OC)c(C(C)(C)C)c1)C(=O)N2 [10732/D09] | 15.2
42 | COc1ccc(C=C2C(=O)Nc3ccc(I)cc32)cc1C(C)(C)C [10732/B05] | 2.8
43 | COc1ccc2[nH]cc(C=C3C(=O)Nc4ccc(CCCl)cc43)c2c1 [10731/G09] | 13.3
44 | COc1c(I)cc(C=C2C(=O)Nc3c(Br)cc(Br)cc32)cc1C(C)(C)C [10732/A11] | -0.6
45 | Cc1c(Br)ccc2c1C(=Cc1ccco1)C(=O)N2 [10718/C10] | -11.9
46 | CNS(=O)(=O)c1ccc2c(c1)C(=Cc1c[nH]c3ccc(OC)cc13)C(=O)N2 [10731/D09] | 6.1
47 | COc1c(I)cc(C=C2C(=O)Nc3ccc(Br)c(C)c32)cc1C(C)(C)C [10732/C11] | 18.2
48 | CCn1c2ccccc2c2cc(C=C3C(=O)Nc4ccc(S(=O)(=O)Nc5ccc(C(F)(F)F)cc5)cc43)ccc21 [10731/E02] | 11.2
49 | O=C1Nc2ccc(CCCl)cc2C1=Cc1coc2ccc([N+](=O)[O-])cc2c1=O [10731/G07] | 31.6
50 | CCn1c2ccccc2c2cc(C=C3C(=O)Nc4ccc(S(=O)(=O)N5CCOCC5)cc43)ccc21 [10731/F02] | 11.1
51 | CNS(=O)(=O)c1ccc2c(c1)C(=CC(c1cccs1)C(F)(F)F)C(=O)N2 (stereo not drawn) [10732/D02] | 9.2
